Results as given in patent US20240300975A1, “DIMETHYL-SUBSTITUTED THIAZOLOLACTAM COMPOUND AND USE THEREOF” (D3 Bio (Wuxi) Co., Ltd., priority 2021, published 2024).

Molecular target: ERK1 (Homo sapiens (Human), UniProt P27361)
Experiment: In vitro ERK1 kinase activity assay (33P-ATP, filter-binding)
Assay type: biochemical
Method: The ability of compounds to inhibit ERK1 and ERK2 kinase activity was measured.
20 mM Hepes (pH 7.5), 10 mM MgCl2, 1 mM ethylenebis(oxyethylenenitrilo)tetraacetic acid (EGTA), 0.02% Brij35, 0.02 mg/mL bovine serum albumin (BSA), 0.1 mM Na3VO4, 2 mM dithiothreitol (DTT), 1% DMSO.
The assay compound was dissolved in 100% DMSO to prepare a stock solution of specific concentration. The compound was serially diluted in DMSO solution using Integra Viaflo Assist smart pipette.
• a) The substrate MBP was prepared in freshly prepared reaction buffer; • b) ERK1 (or ERK2) kinase was added to the above-mentioned MBP solution and mixed gently; • c) The compound dissolved in 100% DMSO was added to the kinase reaction system using ultrasound technology (Echo550; nanoliter range), and the mixture was incubated at room temperature for 20 minutes; • d)^33P-ATP (specific concentration of […]) was added to the reaction system, and the reaction was started at this time; • e) The mixture was incubated at room temperature for 2 hours; • f) The amount of radioactivity was detected by filter-binding method; • g) ERK1 (or ERK2) kinase activity was calculated as the ratio of the remaining kinase activity in the assay sample to the kinase activity of the control group (treated by DMSO).
Curve was fitted using Prism (GraphPad software) and IC50 values were calculated.

Chain of ERK1 (P27361 whole entry): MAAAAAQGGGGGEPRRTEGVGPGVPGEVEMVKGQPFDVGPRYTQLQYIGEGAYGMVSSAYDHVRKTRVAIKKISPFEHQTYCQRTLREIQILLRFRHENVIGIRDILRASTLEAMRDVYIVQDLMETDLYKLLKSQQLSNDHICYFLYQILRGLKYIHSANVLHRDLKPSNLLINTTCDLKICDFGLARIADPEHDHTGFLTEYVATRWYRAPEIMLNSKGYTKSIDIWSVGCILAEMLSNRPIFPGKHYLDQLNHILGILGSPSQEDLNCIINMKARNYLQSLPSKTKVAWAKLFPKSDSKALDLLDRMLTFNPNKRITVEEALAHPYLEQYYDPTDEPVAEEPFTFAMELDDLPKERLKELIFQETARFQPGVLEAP

Cc1cccc(CN2C(=O)c3nc(-c4nc(Nc5ccnn5C)ncc4C)sc3C2(C)C)n1 [WX001]
IC50: 1.2 nM
